The test system of data set [1] is omega 3 sites. The data set can be described thus: Global ischemia on gerbils. It is filed as in vivo, gerbil. The following applies: Meriones unguiculatus, 168 h; both carotides clamped 10 minutes; hippocampes taken one week later; 3H-PK 11195 2 nM; compared to control; significance marks (*, **, ***, NS) given; read-out: Global protection in %. As to the method: 3) Global ischemia on gerbils
For this test, males gerbilles were anaesthetized with brietal at the doses of 35 mg/kg IP; thereafter, both carotides were clamped for 10 minutes, then the clamping was released. Treated animals received each 10 mg/kg of the compounds of one of the examples.
One week later, the animals were killed and both hippocampes were taken, weighed and frozen at -80° C.
After crushing with 1 ml of TRIS-HCl buffer pH 7.4 for 30 secondes, aliquots of each 50 μl of this preparation were incubed in each 1 ml of TRIS-HCl buffer containing ^3 H-PK 11195 at 2 nM (90 Ci/mmole, NENE, Germany) for 1 hour at 25° C. For each preparation, 3 determinations were made. The density of omega 3 sites (marked by the specific ^3 H PK 11195 marker) are expressed in f-moles of PK 11195/mg of fresh tissues and converted in percentage of protection compared to control.

Data set [2] in a line: Toxicity on mice. The following applies: mouse, in vivo, IP. The text has this: None of these compounds of this invention was toxic per os at dose of 1 g/kg on mice.
None of the compounds was toxic IP at the dose of 1 g/kg on mice with the exception of the examples 1, 5 and 10 for which the LD 50 was comprised between 0.5 and 1 g/kg.

Data set [3] deals with platelet aggregation induced by PAF. The data set can be described thus: Inhibition of platelet aggregation induced by PAF. Format: cell-based, New Zealand rabbits. The following applies: Oryctolagus cuniculus, rabbit platelets, aggregometer at 57° C. [sic]. As to the method:
1) Inhibition of platelet aggregation induced by PAF
This experimentation was conducted according to the method of R. KINLOUGH. RATHBONE, J. P. CAZENAVE, M. PACKHAM and F. MUSTARD, Lab. Invest. 48, 98, 1980. In this test, New Zealand rabbits were used (male New Zealand rabbits of an average weight of 5 kg).
The determinations are made on a chrono-log Coultronics aggregometer, at […] coupled with a graphic recorder; the results of these determinations (in molecular concentration) are reported on the table I on the central column.

Data set [4] is described as follows: Solubility. Format: physicochemical. As to the method:
Yield 38 g (85%) of an orange powder melting at 80° C. (Tottoli) insoluble in water at room temperature but soluble in DMSO.

The text below walks through data of patent US5049560A, “Sulfonyl derivatives of thieno-triazolo-diazepines useful as anti-PAF and anti-ischemic agents” (priority 1989, dated 1991).

The structures appear in SMILES notation.

With `COc1ccc(S(=O)(=O)N2CCc3c(sc4c3C(c3ccccc3Cl)=NCc3nnc(C)n3-4)C2)c(OC)c1OC` [Example 5, 6-(2-chlorophenyl)-9-(4,5,6-trimethoxy)phenylsulphonyl-7,8,9,10-tetrahydro-1-methyl 4H-pyrido [4',3':4,5] thieno [3,2-f] 1,2,4-triazolo [4,3-a] 1,4-diazepine], the inhibition in vivo at 10 mg/kg in data set [1] is 28.1%. For the same compound, the LD50 (in general, the dose expected to kill half of the subjects tested) in data set [2] was 500 to 1000 mg/kg. Besides, the midpoint of inhibition in data set [3], the IC50, lay at 187 nM.
Consider `CCCCCCCCCCCCCCCCS(=O)(=O)N1CCc2c(sc3c2C(c2ccccc2Cl)=NCc2nnc(C)n2-3)C1` [Example 1, 6-(2-chlorophenyl)-9-hexadecylsulphonyl-7,8,9,10-tetrahydro-1-methyl 4H-pyrido [4',3':4,5] thieno [3,2-f] 1,2,4-triazolo [4,3-a] 1,4-diazepine], for which the LD50 in data set [2] fell in the range of 500 to 1000 mg/kg. Moreover, the “solubility in DMSO” value in data set [4] (DMSO) is reported as “soluble”. Further, the solubility in water result in data set [4] (water, room temperature) is “insoluble”. The IC50 (in general, the concentration that inhibits the measured activity by half) in data set [3] turned out to be 96.3 nM.
Consider `Cc1nnc2n1-c1sc3c(c1C(c1ccccc1Cl)=NC2)CCN(S(=O)(=O)c1ccc(C(F)(F)F)cc1)C3` [Example 4, 6-(2-chlorophenyl)-9-(trifluoromethyl)phenylsulphonyl-7,8,9,10-tetrahydro-1-methyl 4H-pyrido [4',3':4,5] thieno [3,2-f] 1,2,4-triazolo [4,3-a] 1,4-diazepine], for which the inhibition in vivo at 10 mg/kg in data set [1] was 38.7%. Moreover, in data set [3], the IC50 is 98.2 nM.
In the case of `Cc1nnc2n1-c1sc3c(c1C(c1ccccc1Cl)=NC2)CCN(S(=O)(=O)c1ccc(Oc2ccc([N+](=O)[O-])cc2)cc1)C3` [Example 10, 6-(2-chlorophenyl)-9-[4-(4'-nitrophenoxy)]phenylsulphonyl-7,8,9,10-tetrahydro-1-methyl 4H-pyrido [4',3':4,5] thieno [3,2-f] 1,2,4-triazolo [4,3-a] 1,4-diazepine], the inhibition in vivo at 10 mg/kg in data set [1] was 19.3%. Also, the median lethal dose (LD50) in data set [2] was 500 to 1000 mg/kg. The IC50 in data set [3] came out at 1.41 nM.
